Data: patent publication EP4548971A1, “1,4-BENZOTHIAZEPINES AND RELATED COMPOUNDS WITH CYCLOPROPANOL GROUPS AS MULTI-TARGETED DRUGS” (Georg-August-Universität Göttingen Stiftung Öffentlichen …, priority 2023, dated 2025)

Molecular target: T1, WT RyR2 (Mus musculus, UniProt E9Q401)
T1 construct: expressed in transfected cells
Experiment: Time-lapse [Ca2+]ER assay (RyR2 R-CEPIA1er assay) in HEK-293 cells
Format: cell-based
Details: for RyR2 effect class: 25 µM in RyR2 R-CEPIA1er assay; for effect on [Ca^2+]ER (R-CEPIA1er fluorescence), in words: 25 µM, vs. 0.1 v/v% DMSO; for EC50: HEK-293 WT RyR2 R-CEPIA1er cells, range after the semicolon is not explained
Protocol: HEK-293 cells stably expressing R-CEPIA1er and WT RyR2 (generous gift from Takashi Murayama, Juntendo University School of Medicine, Tokyo) were cultured in Dulbecco's Modified Eagle medium (DMEM, Thermo Fisher Scientific, Darmstadt, Germany) supplemented with 10% fetal bovine serum (FBS, Thermo Fisher Scientific, Darmstadt, Germany), 0.9% Penicillin/Streptomycin (Merck KGaA, Darmstadt, Germany), 15ug/mL Blasticidine (Invivogen, Toulouse, France), 100 µg/mL Hygromycin (Merck KGaA, Darmstadt, Germany) and 400 µg/mL G418 (Thermo Fisher Scientific, Darmstadt, Germany) in a humidified 5% COz incubator at 37 °C. To induce the expression of WT RyR2 in the endoplasmic reticulum (ER), 2 µg/mL Doxycycline (Merck KGaA, Darmstadt, Germany) was added 24 h before experiments.
The fluorescent plate reader [Ca^2+]ER assay was performed according to the slightly modified protocol of Murayama & Kurebayashi [T. Murayama, N. Kurebayashi, Assays for Modulators of Ryanodine Receptor (RyR)/Ca(2+) Release Channel Activity for Drug Discovery for Skeletal Muscle and Heart Diseases. Curr. Protoc. […] After the cells were inducted with Doxycycline for 24 h, changes in ER calcium concentrations [Ca^2+]ER were measured on a multiwell plate reader TECAN Spark 20M at 37 °C. The 1000 × stock solutions of the test compounds were prepared in DMSO. Briefly, the culture medium was removed and 100 µl of Tyrode's solution containing 2 mM CaCl2 was added to the cells. The time courses were recorded in each well. Fluorescence was evoked by 560 nm excitation wavelength and collected in a bottom-read mode at 610 nm. Data was recorded every 10 s, exposure - 20 flashes, excitation bandwidth - 20 nm, emission bandwidth - 20 nm. 100 µl of 0 - 100 µM solution of test compound in Tyrode's solution containing 2 mM CaCh was injected in each well (speed 100 µl/s) at the 90 s time point. […] The 0.1 v/v% DMSO and 2 mM CaCh Tyrode's solution was used as a control.
The dose response curves were calculated using the software package GraphPad Prism version 8.3.1. (GraphPad Software, Inc.). All data are presented as mean ± S.D. in 3 independent experiments. Y=Bottom + (Top-Bottom)/(1+10^((LogEC50-X)*HillSlope)) was used where HillSlope describes the steepness of the curve, Top and Bottom are plateaus in the units of the Y axis.
The inventors measured changes in Ca^2+ levels in the endoplasmic reticulum (ER) of HEK-293 cells with inducible expression of wild-type RyR2 (WT RyR2) [T. Murayama, N. Kurebayashi, M. Ishigami-Yuasa, S. Mori, Y. Suzuki, R. Akima, H. Ogawa, J. Suzuki, K. Kanemaru, H. Oyamada, Y. Kiuchi, M. Iino, H. Kagechika, T. Sakurai, Efficient High-Throughput Screening by Endoplasmic Reticulum Ca(2+) Measurement to Identify Inhibitors of Ryanodine Receptor Ca(2+)-Release Channels. […] The cells additionally stably express the Ca^2+ fluorescence indicator R-CEPIA1er, which is a genetically encoded sensor protein of Ca^2+ in the ER ([Ca^2+]ER) [T. Murayama, N. Kurebayashi, Assays for Modulators of Ryanodine Receptor (RyR)/Ca(2+) Release Channel Activity for Drug Discovery for Skeletal Muscle and Heart Diseases. Curr. Protoc.
The fluorescence ratio F/F0 was calculated, where F0 - is the average fluorescence for the first 90 s, F - is the average fluorescence for the last 100 s, and normalized.

T1 sequence (E9Q401 whole entry): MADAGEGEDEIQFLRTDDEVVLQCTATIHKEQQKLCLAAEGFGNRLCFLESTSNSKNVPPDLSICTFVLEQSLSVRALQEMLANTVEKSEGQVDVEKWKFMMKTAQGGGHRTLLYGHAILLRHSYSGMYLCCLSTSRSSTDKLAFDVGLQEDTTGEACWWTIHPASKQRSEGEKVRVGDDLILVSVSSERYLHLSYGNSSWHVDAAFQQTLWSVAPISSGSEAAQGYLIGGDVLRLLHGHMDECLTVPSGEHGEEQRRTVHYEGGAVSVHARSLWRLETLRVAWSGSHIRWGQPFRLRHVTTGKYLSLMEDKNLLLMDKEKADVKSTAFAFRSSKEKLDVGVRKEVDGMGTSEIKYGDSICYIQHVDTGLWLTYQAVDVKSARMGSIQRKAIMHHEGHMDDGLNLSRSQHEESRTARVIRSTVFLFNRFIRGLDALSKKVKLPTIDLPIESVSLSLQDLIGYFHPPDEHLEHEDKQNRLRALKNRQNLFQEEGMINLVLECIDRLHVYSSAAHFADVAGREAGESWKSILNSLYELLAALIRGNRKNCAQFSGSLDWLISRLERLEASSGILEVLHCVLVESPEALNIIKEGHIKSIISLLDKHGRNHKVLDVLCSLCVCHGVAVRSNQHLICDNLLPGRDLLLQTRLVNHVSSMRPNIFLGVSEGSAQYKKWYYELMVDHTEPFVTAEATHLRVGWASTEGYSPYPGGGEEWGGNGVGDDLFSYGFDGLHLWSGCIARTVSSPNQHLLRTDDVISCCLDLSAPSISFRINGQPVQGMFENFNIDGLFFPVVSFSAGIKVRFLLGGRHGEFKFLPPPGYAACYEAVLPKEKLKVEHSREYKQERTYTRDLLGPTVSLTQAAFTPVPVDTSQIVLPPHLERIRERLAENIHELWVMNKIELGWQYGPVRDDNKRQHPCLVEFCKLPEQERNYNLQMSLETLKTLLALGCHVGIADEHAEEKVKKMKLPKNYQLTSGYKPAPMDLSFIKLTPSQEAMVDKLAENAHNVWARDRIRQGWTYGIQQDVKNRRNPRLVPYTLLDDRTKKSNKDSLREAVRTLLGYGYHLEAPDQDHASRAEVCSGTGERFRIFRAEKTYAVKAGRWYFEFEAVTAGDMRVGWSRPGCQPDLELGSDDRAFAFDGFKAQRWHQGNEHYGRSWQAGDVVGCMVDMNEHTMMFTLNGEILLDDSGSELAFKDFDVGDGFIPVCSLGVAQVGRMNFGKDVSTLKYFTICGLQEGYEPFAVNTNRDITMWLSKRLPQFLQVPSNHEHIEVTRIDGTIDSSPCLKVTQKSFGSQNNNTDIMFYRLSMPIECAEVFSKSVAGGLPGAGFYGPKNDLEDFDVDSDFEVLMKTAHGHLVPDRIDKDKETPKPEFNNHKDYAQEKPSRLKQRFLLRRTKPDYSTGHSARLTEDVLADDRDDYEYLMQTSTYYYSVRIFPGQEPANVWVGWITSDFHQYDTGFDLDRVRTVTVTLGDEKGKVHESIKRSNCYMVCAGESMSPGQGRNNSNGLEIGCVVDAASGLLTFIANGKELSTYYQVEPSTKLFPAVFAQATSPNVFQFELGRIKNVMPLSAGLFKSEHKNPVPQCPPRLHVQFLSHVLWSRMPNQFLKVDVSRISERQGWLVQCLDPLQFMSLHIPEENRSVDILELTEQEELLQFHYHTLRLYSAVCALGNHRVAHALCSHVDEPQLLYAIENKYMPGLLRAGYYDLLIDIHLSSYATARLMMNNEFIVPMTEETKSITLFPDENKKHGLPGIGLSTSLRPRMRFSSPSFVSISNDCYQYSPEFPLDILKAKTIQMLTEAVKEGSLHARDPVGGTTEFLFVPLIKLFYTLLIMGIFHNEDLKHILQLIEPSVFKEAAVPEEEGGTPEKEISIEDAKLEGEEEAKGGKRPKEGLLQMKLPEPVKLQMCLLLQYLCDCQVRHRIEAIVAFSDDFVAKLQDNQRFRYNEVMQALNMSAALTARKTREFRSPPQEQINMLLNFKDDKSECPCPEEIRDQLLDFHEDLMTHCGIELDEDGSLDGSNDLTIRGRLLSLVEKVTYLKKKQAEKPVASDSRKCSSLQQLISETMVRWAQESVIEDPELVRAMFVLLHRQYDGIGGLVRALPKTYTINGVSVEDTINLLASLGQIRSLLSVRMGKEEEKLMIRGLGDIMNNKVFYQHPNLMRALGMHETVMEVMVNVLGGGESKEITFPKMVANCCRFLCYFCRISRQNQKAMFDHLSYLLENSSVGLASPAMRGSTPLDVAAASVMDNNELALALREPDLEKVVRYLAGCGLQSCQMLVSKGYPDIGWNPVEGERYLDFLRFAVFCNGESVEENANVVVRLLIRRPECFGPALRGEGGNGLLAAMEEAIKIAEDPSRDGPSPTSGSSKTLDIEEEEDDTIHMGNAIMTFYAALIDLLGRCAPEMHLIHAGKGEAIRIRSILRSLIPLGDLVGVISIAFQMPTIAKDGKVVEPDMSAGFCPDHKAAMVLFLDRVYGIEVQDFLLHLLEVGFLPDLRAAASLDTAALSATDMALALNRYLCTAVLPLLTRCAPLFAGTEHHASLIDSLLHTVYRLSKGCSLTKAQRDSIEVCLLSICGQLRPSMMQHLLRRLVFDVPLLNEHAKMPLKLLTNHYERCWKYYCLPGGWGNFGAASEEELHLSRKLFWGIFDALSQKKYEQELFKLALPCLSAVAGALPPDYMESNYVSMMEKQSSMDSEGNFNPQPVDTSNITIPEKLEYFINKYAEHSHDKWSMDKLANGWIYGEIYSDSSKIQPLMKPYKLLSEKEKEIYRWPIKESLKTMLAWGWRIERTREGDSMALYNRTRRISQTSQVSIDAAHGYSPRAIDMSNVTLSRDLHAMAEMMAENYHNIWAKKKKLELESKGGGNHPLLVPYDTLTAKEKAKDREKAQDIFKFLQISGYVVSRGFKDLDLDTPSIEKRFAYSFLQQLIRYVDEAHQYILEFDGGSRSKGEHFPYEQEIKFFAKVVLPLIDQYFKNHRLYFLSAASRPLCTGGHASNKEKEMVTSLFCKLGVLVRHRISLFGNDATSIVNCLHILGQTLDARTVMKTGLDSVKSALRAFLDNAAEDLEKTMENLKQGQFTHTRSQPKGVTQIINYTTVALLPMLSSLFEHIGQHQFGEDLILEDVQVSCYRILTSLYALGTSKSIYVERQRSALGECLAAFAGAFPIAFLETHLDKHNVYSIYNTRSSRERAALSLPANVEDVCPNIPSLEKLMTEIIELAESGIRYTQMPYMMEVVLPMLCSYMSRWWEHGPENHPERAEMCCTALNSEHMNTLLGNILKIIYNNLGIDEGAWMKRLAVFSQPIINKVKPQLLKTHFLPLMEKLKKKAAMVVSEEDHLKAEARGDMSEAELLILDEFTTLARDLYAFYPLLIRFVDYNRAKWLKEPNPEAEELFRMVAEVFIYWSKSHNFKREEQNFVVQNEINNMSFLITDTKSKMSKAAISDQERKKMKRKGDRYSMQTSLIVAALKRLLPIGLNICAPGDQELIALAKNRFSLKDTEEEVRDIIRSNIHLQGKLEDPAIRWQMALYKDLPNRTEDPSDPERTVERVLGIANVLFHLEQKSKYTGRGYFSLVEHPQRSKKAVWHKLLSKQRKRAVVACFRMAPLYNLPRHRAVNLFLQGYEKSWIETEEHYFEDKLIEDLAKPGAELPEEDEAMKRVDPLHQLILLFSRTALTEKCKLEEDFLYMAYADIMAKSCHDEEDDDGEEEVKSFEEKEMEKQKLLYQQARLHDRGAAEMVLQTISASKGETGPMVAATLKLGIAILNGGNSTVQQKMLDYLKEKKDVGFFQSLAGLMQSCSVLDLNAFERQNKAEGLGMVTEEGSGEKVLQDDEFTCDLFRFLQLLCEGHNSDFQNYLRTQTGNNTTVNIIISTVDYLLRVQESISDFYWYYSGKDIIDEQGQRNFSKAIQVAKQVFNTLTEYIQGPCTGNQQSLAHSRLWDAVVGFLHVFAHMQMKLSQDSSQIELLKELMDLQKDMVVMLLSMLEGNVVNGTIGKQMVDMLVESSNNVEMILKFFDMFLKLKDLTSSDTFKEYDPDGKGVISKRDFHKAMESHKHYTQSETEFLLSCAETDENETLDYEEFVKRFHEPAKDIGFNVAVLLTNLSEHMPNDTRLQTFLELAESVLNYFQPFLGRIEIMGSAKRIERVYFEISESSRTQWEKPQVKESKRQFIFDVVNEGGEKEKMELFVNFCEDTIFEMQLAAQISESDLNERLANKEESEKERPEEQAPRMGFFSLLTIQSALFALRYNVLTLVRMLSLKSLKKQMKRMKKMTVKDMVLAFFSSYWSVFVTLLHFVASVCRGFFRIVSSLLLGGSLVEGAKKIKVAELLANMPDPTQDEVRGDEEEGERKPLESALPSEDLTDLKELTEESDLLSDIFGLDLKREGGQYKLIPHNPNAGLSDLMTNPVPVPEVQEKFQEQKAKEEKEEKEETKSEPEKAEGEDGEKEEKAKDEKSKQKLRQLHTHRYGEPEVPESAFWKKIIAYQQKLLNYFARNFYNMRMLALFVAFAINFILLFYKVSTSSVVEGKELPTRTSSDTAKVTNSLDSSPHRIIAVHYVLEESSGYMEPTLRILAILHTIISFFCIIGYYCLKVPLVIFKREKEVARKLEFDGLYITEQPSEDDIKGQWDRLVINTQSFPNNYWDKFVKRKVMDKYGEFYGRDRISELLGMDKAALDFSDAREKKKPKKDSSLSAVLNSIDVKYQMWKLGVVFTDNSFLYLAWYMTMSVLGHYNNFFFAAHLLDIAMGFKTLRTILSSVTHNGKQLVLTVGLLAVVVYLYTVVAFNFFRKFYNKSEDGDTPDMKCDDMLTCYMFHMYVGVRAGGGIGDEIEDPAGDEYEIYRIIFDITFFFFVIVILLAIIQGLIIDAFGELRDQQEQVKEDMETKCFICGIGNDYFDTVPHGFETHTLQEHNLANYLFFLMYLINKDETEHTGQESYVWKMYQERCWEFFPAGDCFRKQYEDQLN

| Compound | RyR2 effect class | effect on [Ca^2+]ER (R-CEPIA1er fluorescence), in words | EC50 [µM] |
| --- | --- | --- | --- |
| COc1ccc2c(c1)CN(Cc1ccc(C(=O)O)cc1)CCS2 [ARM210, reference compound] | ++ | significantly increased [Ca^2+]ER |  |
| COc1ccc2c(c1)CN(CCCCNCCCCC1(O)CC1)CCS2 [Compound 13a, 1-(4-((4-(7-Methoxy-2,3-dihydrobenzo[1,4-f]-thiazepin-4(5H)-yl)butyl)amino)butyl)cyclopropan-1-ol] | ++ |  |  |
| COc1ccc(OCCCNCCCCC2(O)CC2)cc1 [Compound 13b, 1-(4-((3-(4-methoxyphenoxy)propyl)amino)butyl)cyclopropan-1-ol] | +++ |  | 0.0815 |
| COc1ccc(SCCCNCCCCC2(O)CC2)cc1 [Compound 13c, 1-(4-((3-((4-Methoxyphenyl)thio)propyl)amino)butyl)cyclopropan-1-ol] | ++ |  | 0.0102 |
| COc1ccc2c(c1)CN(CCCCC1(O)CC1)CCS2 [Compound 13d, 1-(4-(7-methoxy-2,3-dihydrobenzo[1,4-f]thiazepin-4(5H)-yl)butyl)cyclopropan-1-ol] | - | no significant RyR2-stabilizing effect |  |
| COc1ccc2c(c1)CN(CCCCN(CCCCC1(O)CC1)CCCCC1(O)CC1)CCS2 [Compound 14a, 1,1'-(((4-(7-Methoxy-2,3-dihydrobenzo[1,4-f]thiazepin-4(5H)-yl)butyl)azanediyl)bis(butane-4,1-diyl))bis(cyclopropan-1-ol)] | +++ |  |  |
| COc1ccc(SCCCN(CCCCC2(O)CC2)CCCCC2(O)CC2)cc1 [Compound 14c, 1,1'-(((3-((4-Methoxyphenyl)thio)propyl)azanediyl)bis(butane-4,1-diyl))bis(cyclopropan-1-ol)] | + |  | 0.0186 |
| COc1ccc2c(c1)CN(C(=O)C(=O)O)CCS2 [Compound S36, reference compound] | +++ | increase in R-CEPIA1er fluorescence |  |
